Results: ChEMBL document CHEMBL1149945, “Synthesis and structure-activity relationships of potent retinoid X receptor ligands” (Bioorg Med Chem Lett, 1997)
pEC50, pKi: −log10 of the molar value.

How the values were obtained:
[1] = target: T1, Retinoic acid receptor beta (Homo sapiens, UniProt P10826); assay: Effective potency in transcriptional activation assay in CV-1 cells expressing retinoic acid receptor RAR beta; assay type: functional, cell-based
T1 sequence (P10826 whole entry): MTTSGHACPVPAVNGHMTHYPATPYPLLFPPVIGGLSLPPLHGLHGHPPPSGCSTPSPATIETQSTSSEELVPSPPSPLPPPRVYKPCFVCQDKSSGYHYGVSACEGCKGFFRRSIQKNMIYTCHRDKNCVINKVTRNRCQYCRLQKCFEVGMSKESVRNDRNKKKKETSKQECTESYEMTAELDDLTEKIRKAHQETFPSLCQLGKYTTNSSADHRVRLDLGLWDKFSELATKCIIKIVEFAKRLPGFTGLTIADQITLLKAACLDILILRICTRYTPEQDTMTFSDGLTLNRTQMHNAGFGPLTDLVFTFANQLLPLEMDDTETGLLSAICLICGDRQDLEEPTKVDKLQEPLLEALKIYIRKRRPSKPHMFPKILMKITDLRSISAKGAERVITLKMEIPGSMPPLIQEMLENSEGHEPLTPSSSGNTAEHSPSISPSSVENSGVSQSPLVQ

[2] = target: T2, Retinoic acid receptor RXR-alpha (Homo sapiens, UniProt P19793); assay: Effective potency in transcriptional activation assay in CV-1 cells expressing Retinoid X receptor RXR alpha; assay type: functional, cell-based
T2 sequence (P19793 whole entry): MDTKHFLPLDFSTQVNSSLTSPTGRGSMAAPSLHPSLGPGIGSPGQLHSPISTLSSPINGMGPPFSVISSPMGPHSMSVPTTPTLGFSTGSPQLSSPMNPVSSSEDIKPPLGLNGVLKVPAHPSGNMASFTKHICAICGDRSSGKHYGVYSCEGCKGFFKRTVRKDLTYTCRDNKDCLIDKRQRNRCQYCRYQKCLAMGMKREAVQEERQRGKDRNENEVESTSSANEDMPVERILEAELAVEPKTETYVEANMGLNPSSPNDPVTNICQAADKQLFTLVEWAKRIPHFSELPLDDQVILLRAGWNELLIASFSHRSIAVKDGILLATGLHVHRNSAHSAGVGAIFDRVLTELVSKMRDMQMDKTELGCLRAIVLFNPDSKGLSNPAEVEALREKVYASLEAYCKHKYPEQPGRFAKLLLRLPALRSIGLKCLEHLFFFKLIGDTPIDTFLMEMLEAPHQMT

[3] = target: T3, Retinoic acid receptor gamma (Homo sapiens, UniProt P13631); assay: Effective potency in transcriptional activation assay in CV-1 cells expressing retinoic acid receptor RAR gamma; assay type: functional, cell-based
T3 sequence (P13631 whole entry): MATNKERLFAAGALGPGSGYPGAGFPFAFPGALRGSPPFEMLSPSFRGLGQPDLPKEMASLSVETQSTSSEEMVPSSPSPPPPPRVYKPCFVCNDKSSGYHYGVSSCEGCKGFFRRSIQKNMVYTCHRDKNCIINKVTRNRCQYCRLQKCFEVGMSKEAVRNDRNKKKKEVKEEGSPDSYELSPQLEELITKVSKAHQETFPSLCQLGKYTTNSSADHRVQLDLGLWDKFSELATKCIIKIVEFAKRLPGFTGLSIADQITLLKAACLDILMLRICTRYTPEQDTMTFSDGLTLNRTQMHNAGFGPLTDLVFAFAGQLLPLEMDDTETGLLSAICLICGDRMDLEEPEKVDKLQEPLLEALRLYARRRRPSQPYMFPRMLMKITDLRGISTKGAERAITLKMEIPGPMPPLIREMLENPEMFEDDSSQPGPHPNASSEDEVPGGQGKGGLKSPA

[4] = target: T4, Retinoic acid receptor RXR-gamma (Mus musculus, UniProt P28705); assay: (§1) Effective potency in transcriptional activation assay in CV-1 cells expressing Retinoid X receptor RXR gamma; assay type: cell-based
T4 sequence (P28705 whole entry): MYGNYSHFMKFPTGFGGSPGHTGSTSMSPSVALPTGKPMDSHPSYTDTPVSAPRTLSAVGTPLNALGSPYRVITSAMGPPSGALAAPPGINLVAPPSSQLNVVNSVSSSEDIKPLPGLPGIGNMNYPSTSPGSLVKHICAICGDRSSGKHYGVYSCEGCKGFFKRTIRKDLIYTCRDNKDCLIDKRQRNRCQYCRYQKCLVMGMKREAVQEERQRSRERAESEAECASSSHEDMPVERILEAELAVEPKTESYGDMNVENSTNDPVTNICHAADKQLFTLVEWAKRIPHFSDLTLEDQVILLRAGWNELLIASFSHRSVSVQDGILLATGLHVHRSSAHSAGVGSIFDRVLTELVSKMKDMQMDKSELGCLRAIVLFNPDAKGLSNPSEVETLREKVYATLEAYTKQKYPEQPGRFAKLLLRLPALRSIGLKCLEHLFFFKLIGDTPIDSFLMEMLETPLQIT

[5] = target: T3, Retinoic acid receptor gamma; assay: Inhibition of [3H]-ATRA binding to Retinoic acid receptor RAR gamma
[6] = target: T5, Retinoic acid receptor RXR-beta (Mus musculus) (UniProt P28704); assay: Percent efficacy for Retinoid X receptor RXR beta in CV-1 cell transcriptional activation assay; assay type: functional, cell-based
T5 sequence (whole entry): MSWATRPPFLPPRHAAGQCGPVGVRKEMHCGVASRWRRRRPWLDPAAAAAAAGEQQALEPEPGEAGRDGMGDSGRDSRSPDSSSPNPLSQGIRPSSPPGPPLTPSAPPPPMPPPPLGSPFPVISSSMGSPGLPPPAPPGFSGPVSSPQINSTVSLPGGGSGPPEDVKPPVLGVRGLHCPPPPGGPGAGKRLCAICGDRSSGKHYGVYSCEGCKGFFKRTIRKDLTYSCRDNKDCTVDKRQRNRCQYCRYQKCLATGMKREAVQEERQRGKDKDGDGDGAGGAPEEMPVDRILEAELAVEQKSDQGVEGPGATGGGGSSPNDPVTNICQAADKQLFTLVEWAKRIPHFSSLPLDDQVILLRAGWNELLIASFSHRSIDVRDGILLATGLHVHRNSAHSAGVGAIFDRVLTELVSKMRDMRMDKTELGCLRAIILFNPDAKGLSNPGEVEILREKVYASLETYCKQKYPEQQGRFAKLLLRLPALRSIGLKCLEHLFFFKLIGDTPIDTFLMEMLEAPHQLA

[7] = target: T1, Retinoic acid receptor beta; assay: Inhibition of [3H]ATRA binding to retinoic acid receptor RAR beta
[8] = target: T6, Retinoic acid receptor RXR-beta (Mus musculus, UniProt P28704); assay: Effective potency in transcriptional activation assay in CV-1 cells expressing Retinoid X receptor RXR beta; assay type: functional, cell-based
T6 sequence (P28704 whole entry): T5 sequence (whole entry)

[9] = target: T4, Retinoic acid receptor RXR-gamma; assay: Inhibition of [3H]9-cis-RA binding to Retinoid X receptor RXR gamma
[10] = target: T7, Retinoic acid receptor alpha (Homo sapiens, UniProt P10276); assay: Effective potency in transcriptional activation assay in CV-1 cells expressing retinoic acid receptor RAR alpha; Not active; assay type: functional, cell-based
T7 sequence (P10276 whole entry): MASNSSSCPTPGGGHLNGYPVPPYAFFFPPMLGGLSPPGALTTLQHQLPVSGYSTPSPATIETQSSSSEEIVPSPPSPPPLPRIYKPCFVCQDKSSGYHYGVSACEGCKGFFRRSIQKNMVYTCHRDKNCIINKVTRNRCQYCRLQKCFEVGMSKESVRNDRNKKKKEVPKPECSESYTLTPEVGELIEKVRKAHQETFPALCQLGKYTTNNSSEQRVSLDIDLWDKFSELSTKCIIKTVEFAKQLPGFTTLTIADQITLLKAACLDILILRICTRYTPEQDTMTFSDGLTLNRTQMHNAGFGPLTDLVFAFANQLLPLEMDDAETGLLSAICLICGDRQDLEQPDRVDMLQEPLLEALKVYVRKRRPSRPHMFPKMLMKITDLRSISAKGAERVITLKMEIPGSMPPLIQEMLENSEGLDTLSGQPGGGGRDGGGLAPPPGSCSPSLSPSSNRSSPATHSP

[11] = target: T7, Retinoic acid receptor alpha; assay: Inhibition of [3H]ATRA binding to retinoic acid receptor RAR alpha
[12] = target: T6, Retinoic acid receptor RXR-beta; assay: Inhibition of [3H]9-cis-RA binding to Retinoid X receptor RXR beta
[13] = target: T2, Retinoic acid receptor RXR-alpha; assay: Inhibition of [3H]9-cis-RA binding to Retinoid X receptor RXR alpha
[14] = target: T8, Retinoic acid receptor RXR-gamma (Mus musculus) (UniProt P28705); assay: Percent efficacy for Retinoid X receptor RXR gamma in CV-1 cell transcriptional activation assay; assay type: cell-based
T8 sequence (whole entry): T4 sequence (P28705 whole entry)

[15] = target: T3, Retinoic acid receptor gamma; conditions: cv-1
[16] = target: T1, Retinoic acid receptor beta; conditions: cv-1
[17] = target: T4, Retinoic acid receptor RXR-gamma; assay: as §1; assay type: functional, cell-based

Structure (SMILES) | pEC50 [1] | pEC50 [2] | pEC50 [3] | pEC50 [4] | pKi [5] | Efficacy [6] | pKi [7] | pEC50 [8] | pKi [9] | EC50 [10] | pKi [11] | pKi [12] | pKi [13] | Efficacy [14] | EC50 [15] | EC50 [16] | pEC50 [17]
CC(/C=C/[C@@]1(C)CCCC1c1ccc2c(c1)C(C)(C)CCC2(C)C)=C\C(=O)O (single isomer, unassigned) | 6.09 | 8.15 | 5.75 | 7.80 | < 6.00 | 110% | < 6.00 | 7.85 | 8.15 | Not Active | < 6.00 | 8.00 | 8.40 | 72% |  |  | 
CC(/C=C/C1=C(c2ccc3c(c2)C(C)(C)CCC3(C)C)CCC1)=C\C(=O)O | 6.47 | 7.28 | 5.94 | 7.40 | < 6.00 | 70% | < 6.00 | 7.38 | 7.24 | Not Active | < 6.00 | 7.44 | 7.70 | 62% |  |  | 
C=C1C[C@H](c2ccc3c(c2)C(C)(C)CCC3(C)C)[C@@H](/C=C/C(C)=C/C(=O)O)C1 | 6.25 | 6.72 | 6.45 | 6.67 | < 6.00 | 169% | < 6.00 | 6.65 | 7.27 | Not Active | < 6.00 | 6.60 | 7.42 | 99% |  |  | 
C=C1C[C@@H](/C=C/C(C)=C/C(=O)O)[C@@H](c2ccc3c(c2)C(C)(C)CCC3(C)C)C1 |  | 6.77 |  |  | < 6.00 | 369% | < 6.00 | 6.66 | 6.79 | Not Active | < 6.00 | 6.25 | 7.18 | 90% | Not Active | Not Active | 6.69
CC(/C=C/[C@]12CCC[C@@]1(c1ccc3c(c1)C(C)(C)CCC3(C)C)C2)=C\C(=O)O |  | 8.40 | 6.68 | 8.52 | < 6.00 | 92% | < 6.00 | 8.52 | 8.30 | Not Active | < 6.00 | 8.00 | 8.52 | 77% |  | Not Active | 
C=C(c1ccc(C(=O)O)cc1)c1cc2c(cc1C)C(C)(C)CCC2(C)C |  |  |  |  |  |  |  |  |  |  |  |  |  | 85% |  |  | 
CC(/C=C/[C@H]1CCC[C@@H]1c1ccc2c(c1)C(C)(C)CCC2(C)C)=C\C(=O)O | 6.20 | 8.10 | 5.89 | 8.22 | < 6.00 | 110% | < 6.00 | 8.00 | 8.30 | Not Active | < 6.00 | 8.22 | 8.52 | 70% |  |  | 
CC(/C=C/[C@@H]1CCC[C@@H]1c1ccc2c(c1)C(C)(C)CCC2(C)C)=C\C(=O)O |  | 7.51 |  | 7.60 | < 6.00 | 101% | < 6.00 | 7.54 | 7.59 | Not Active | < 6.00 | 7.96 | 7.82 | 58% | Not Active | Not Active | 
CC(/C=C/C1=C(c2cc3c(cc2C)C(C)(C)CCC3(C)C)CCC1)=C\C(=O)O |  | 7.02 |  | 6.89 | < 6.00 | 44% | < 6.00 | 6.72 | 7.66 | Not Active | < 6.00 | 7.60 | 8.30 | 42% | Not Active | Not Active | 
CC(/C=C/[C@]1(C)CCCC1c1ccc2c(c1)C(C)(C)CCC2(C)C)=C\C(=O)O (single isomer, unassigned) |  | 7.21 |  | 7.36 | < 6.00 | 50% | < 6.00 | 7.21 | 8.15 | Not Active | < 6.00 | 8.00 | 8.40 | 38% | Not Active | Not Active | 
